Read-outs that look alike come from different tables or passages of the source.
Columns and labels:
[1] = system: sons of alcoholics and controls (men)
Text: As part of a larger study, 41 men, were selected from among the first 113 completed 15-year follow-ups in a prospective study. […] Seventeen subjects whose low level of response to ethanol (LR) were in the lower third were compared on five polymorphisms of four genes with 24 men whose reactions to alcohol had been above the median.
For this pilot study, blood samples were taken from the first 41 appropriate consecutive men among the first 113 who completed 15-year follow-ups in an ongoing study. In order to identify subjects who were clearly low on LR, the men were selected to represent the two poles of LR. […] The alcohol challenges, evaluated changes from baseline for subjective feeling of intoxication, standing steadiness, and hormones after drinking 0.75 ml/kg of ethanol. (Schuckit and Gold, Arch Gen Psychiatry 45:211-216 (1986). The overall LR was evaluated as the change from baseline (pre-alcohol) to the time of peak blood alcohol concentration (BAC) (60 minute values) following alcohol consumption.

[2] = system: children of alcoholics (COAs); assay: Smooth pursuit eye movement task after intravenous diazepam; format: in vivo, human; details: COAs having the Pro385Ser allele relative to COAs having the Pro385 genotype
Procedure: Initially, the saccadic eye movement velocity and smooth pursuit eye movement gain was measured in the 56 COAs tested. Two baseline measurements for each variable were taken and averaged. The differences from this baseline were then evaluated at set time points after each of four diazepam doses. The data points were used to determine, by a trapezoidal technique, the integrated area under the resulting curve. The area under the curve for the dependent variable was then divided by the area under the curve for plasma diazepam levels to correct for individual variability in diazepam levels. The ratios of the areas under the curves for COAs with the Ser385 homozygous genotype and the Pro/Ser heterozygous genotype were then compared by t-test. […] For the G1031C genotype, a one-way ANOVA was used for assessing association.
COAs were tested on two days about one week apart. Intravenous catheters were inserted into antecubital veins in each of the subjects arms. One intravenous line was used for drawing blood while the other was used for administration of either diazepam or placebo. […]
On each testing day, responses were measured at 12 separate time points: twice at baseline, once after each of the four doses, and at each of six 30 minute intervals after the last dose for a period spanning three hours. Eye movements were evaluated at each time point. […]

`CCO` [ethanol] was tested, and the “mean (±SD) LR” value ([1]; 0.75 ml/kg ethanol, 5-HT2A His452Tyr genotype His-His) was “−.44”, the “mean (±SD) LR” value ([1]; 0.75 ml/kg ethanol, 5-HT2A His452Tyr genotype His-Tyr) was “−.20” and the “mean (±SD) LR” value ([1]; 0.75 ml/kg ethanol, 5-HT2A T102C genotype CC) was “−.46”. For the same molecule, the “mean (±SD) LR” value ([1]; 0.75 ml/kg ethanol, 5-HT2A T102C genotype TC) was “−.31”, the “mean (±SD) LR” value ([1]; 0.75 ml/kg ethanol, 5-HT2A T102C genotype TT) was “−.71” and the “mean (±SD) LR” value ([1]; 0.75 ml/kg ethanol, 5-HT2C Cys23Ser genotype Cys) was “−.39”. For the same molecule, the “mean (±SD) LR” value ([1]; 0.75 ml/kg ethanol, 5-HT2C Cys23Ser genotype Ser) was “−.73”, the “mean (±SD) LR” value ([1]; 0.75 ml/kg ethanol, 5-HT Transporter genotype SL) was “−.30” and the “mean (±SD) LR” value ([1]; 0.75 ml/kg ethanol, 5-HT Transporter genotype SS) was “−.00”. For the same molecule, the “mean (±SD) LR” value ([1]; 0.75 ml/kg ethanol, GABAA α6 genotype Pro/Pro) was “−.27”, the “mean (±SD) LR” value ([1]; 0.75 ml/kg ethanol, GABAA α6 genotype Pro/Ser) was −1.01 and the “mean LR” value ([1]; 0.75 ml/kg ethanol, combined SL and SS 5-HTT genotype groups) was 0.16±0.75. The “proportion of subjects whose LR fell into the lowest third” value ([1]; 5-HTT genotype LL) was 71.4%, the “proportion of subjects whose LR fell into the lowest third” value ([1]; 5-HTT genotype SL) was 31.6% and the “proportion of subjects whose LR fell into the lowest third” value ([1]; 5-HTT genotype SS) was 12.5%. For the same molecule, the “LR at age 20” value ([1]; LL/PP genotypes) was −0.74±1.13, the “proportion in the lowest third in response to alcohol” value ([1]; Pro385 homozygotes) was 35.3% and the “LR at age 20” value ([1]; SL/PP genotypes) was −0.13±0.88. For the same molecule, the “LR at age 20” value ([1]; SL/PS genotypes) was 0.59±1.11, the “LR at age 20” value ([1]; SS/PP genotypes) was 0.03±0.45 and the “LR at age 20” value ([1]; combination of LL 5-HTT and Ser385 GABAA α6 genotypes) was −1.29±0.53. For the same molecule, the Sensitivity to ethanol ([1]; individuals with the Pro385Ser polymorphism compared with the wild-type polymorphism) was “reduced sensitivity” and the “proportion in the lowest third in response to alcohol” value ([1]; those with Ser385 (Pro/Ser)) was 71.4%.
For `CN1C(=O)CN=C(c2ccccc2)c2cc(Cl)ccc21` [diazepam], the “Sensitivity to diazepam (average smooth pursuit eye movement gain)” value [2] was “reduced sensitivity”.

— US6762294B2, “Polynucleotides encoding polymorphic human GABAA receptor α-6 subunit” (The United States of America as represented by the …, priority 1999, dated 2004)
